In patent US20260060947A1 (INSTITUT PASTEUR DE MONTEVIDEO, priority 2019, published 2026):
Entries after “also recorded” stand apart in the source; their conditions may differ.

Legend:
[1] = test system: NF-κB; assay: LPS-induced NF-κB-dependent gene expression in THP-1 cells (qPCR); type: cell-based, Human; conditions: 30 μM for 2 hs, then LPS 100 ng/mL
Description: The effect of BANA or BA over NF-κB-dependent gene expression was studied by qPCR using THP-1 cells. THP-1 cells were differentiated into macrophages and treated with BANA (30 μM) or BA (30 μM) for 2 hs, followed by stimulation with LPS (100 ng/mL, for 3-4 h).
TNFα, CCL2, IL6 and IL-1β expression was analyzed by RT-PCR. Real-time PCR analysis was conducted as follows: Total mRNA was extracted from THP-1 cells to quantify TNFα, IL-6 and MCP-1-fold change gene expression over control (β-actin) by qPCR assay. Purified RNA was transcripted to cDNA using Superscript II Reverse Transcriptase with Oligo (dT). The cDNA for real-time PCR was obtained with a Piko 24 Thermal Cycler (Thermo Scientific). mRNA expression analysis was calculated using the ddCt method with β-Actin as the house keeping gene. SYBR Green was used as DNA binding dye and the qRT-PCR was done in an Eco Illumina thermocycler. Human primers sequences were used for THP-1 cells: […]

[2] = test system: IL-1β; assay: IL-1β in peritoneum and plasma of LPS-injected mice (ELISA); type: in vivo; conditions: 50 mg/kg IP 1 h before LPS 10 mg/kg, measured 3 h later, compared to vehicle and BA
Description: BANA (50 mg/kg), BA (50 mg/kg) or vehicle, were intraperitoneally (IP) injected 1 h before LPS intraperitoneal administration (10 mg/kg). 3 h later, IL-1β levels were measured in the peritoneum and plasma by ELISA.
In turn, BANA was able to reduce IL-1β concentration in plasma and peritoneum of mice intraperitoneally injected with LPS respect to controls (FIGS. 8A-1 and 8A-2). BANA (50 mg/kg), BA (50 mg/kg) or vehicle, were intraperitoneally (IP) injected 1 h before LPS intraperitoneal administration (10 mg/kg). 3 h later, IL-1β levels were measured in the peritoneum and plasma by ELISA. […] All data are expressed as mean±SEM; data were analyzed by Ordinary one-way ANOVA followed by Tukey's multiple comparisons test, ***p=0.0002 ****p<0,0001. n=3 animals per condition.

[3] = test system: SOD1^G93A rats; assay: Motor neuron analysis in lumbar spinal cord (ChAT, soma size, ubiquitin, nitrotyrosine, synaptic terminals); type: in vivo, rat
Description: One of the main features of ALS in both human patients and animal models is motor neuron loss, thus the effect of BANA on motor neuron size and number was characterized. To further investigate the protective effect of BANA on motor neuron pathology in SOD1^G93A symptomatic rats, experiments were conducted to assess the number of synaptic terminals contacting motor neuron cell bodies in the ventral spinal cord as well as the denervation of neuromuscular junctions.
The number of motor neurons expressing ChAT was assessed by counting the positive cells in the gray matter of the lumbar spinal cord of non-transgenic compared with symptomatic SOD1^G93A onset, vehicle- and BANA treated rats. Motor neuron counting was assessed by counting ChAT positive cells in the ventral horn on eight 30 μm sections taken 100 μm apart. The longest axis (length) of each soma was taken into consideration to quantify the mean size of motor neuron soma. The analysis was performed manually in at least 10 histological sections per animal (four different rats for each condition) using the cell counter tool of the ImageJ software. Statistical studies were performed using statistical tools of the GraphPad Prism 7 software. Descriptive statistics were used for each group, and Kruskal-Wallis analysis followed by Dunn's comparison test was used among groups. Results are presented as mean±SEM, with p<0.05 considered significant.
In other experiments, the number of synaptic vesicles contacting motor neuron cell bodies was assessed by immunohistochemistry by counting VGlut-1-positive and Synaptophysin-positive puncta in Rexed laminae VII and IX. Synaptic terminals were quantified in at least 20 motor neurons per animal (4 different rats per condition) using the Analyze Particles tool of ImageJ software.

[4] = test system: NF-κB; assay: TNFα-induced NF-κB activation in HT-29 NF-κB reporter cell line (flow cytometry); type: cell-based; conditions: BANA 10, 20, 30 μM, BA 30 μM, DMF 30 μM before TNFα
Description: The effects of BANA on LPS- or TNFα-induced NF-κB activation were also assayed in cell cultures of BV2 microglial cell line and primary adult microglia isolated from symptomatic SOD1^G93A rats, and HT-29 NF-κB reporter cell line, respectively.

[5] = test system: NF-kB; assay: NF-kB activation after sciatic nerve section in NF-kB-RE-Luc mice (in vivo luminescence); parameters: species or system mouse; conditions: oral 100 mg/kg/day day 0 to day 4, vs vehicle
Description: FIG. 17A: Scheme of the experimental design in which NF-kB-RE-Luc tg mice were treated with 100 mg/kg/day of BANA or vehicle starting immediately before sciatic nerve section (day 0) until day 4.
For NF-kB in vivo imaging studies, the NF-kB-RE-Luc random transgenic mouse model (Taconic, BALB/c-Tg(Rela-luc)31Xen) aged 6-8 weeks was used. These animals carry a transgene containing 6 NF-kB-responsive elements (RE) from the CMVα (immediate early) promoter placed upstream of a basal SV40 promoter, and a modified firefly luciferase cDNA (Promega pGL3). Animals were randomized divided into two groups and orally administrated with 100 mg/kg of BANA or Vehicle (phosphate buffer) starting immediately before sciatic nerve section in the right hindlimb and continuing for 4 days. At day 1, 2 and 4 post-surgery, differences in luciferase activity were compared between groups. To accomplish that, 150 mg/kg of the substrate D-luciferin (#K9918PE, XenoLight) dissolved in PBS, pH 7.4, was injected intraperitoneally to each mouse. […] Changes in NF-kB activity were quantified after comparing the differences of luminescence in the right hindlimb between groups, using ImageJ software.

[6] = 100 mg/kg/day, 15 days after paralysis onset, vs vehicle

O=C(O)c1ccc(/C=C/[N+](=O)[O-])cc1 [BANA, (E)-4-(2-nitrovinyl) benzoic acid]
levels of mRNA coding for TNFα, MCP-1 and IL-6 [1]: potently prevented; also recorded: abrogated
IL-1β concentration in plasma [2]: significantly reduces
IL-1β concentration in the peritoneum [2]: significantly reduces
loss of VGlut-1-positive and Synaptophysin-positive synaptic terminals ([3]; 100 mg/kg/day post-paralysis, vs vehicle): significantly prevented
number of ChAT+ motor neurons ([3]; 100 mg/kg/day, 15 days after paralysis onset): prevented motor neuron loss
NO2-Tyrosine accumulation in surviving motor neurons [3, 6]: significantly prevented
motor neuron size [3, 6]: ameliorated
ubiquitin accumulation / aggregation in motor neurons [3, 6]: significantly prevented
TNFα-induced NF-κB activation [4]: potently prevented
NF-kB luminescence in right hindlimb after sciatic nerve section [5]: significantly prevented
